Experimental data published in ChEMBL document CHEMBL1800066 (J Med Chem, 2011).
Converted amounts (≈) assume the structure as drawn. The source made the active and inactive calls. The rule behind the calls is not given here.

Key:
[1] = target: T1, Hepatocyte growth factor receptor (Homo sapiens, UniProt P08581); assay: Inhibition of c-MET overexpressed in human GTL-16 cells assessed as phosphorylation at C-terminal Y1349 after 2 hrs by Western blot analysis; format: cell-based
[2] = Antiproliferative activity against human GTL16 cells after 72 hrs; conditions: GTL 16, 72 h
[3] = Plasma clearance in rat at 2 mg/kg, iv and 5 mg/kg, po; format: ADME, organism-based
[4] = Volume of distribution at steady state in rat at 2 mg/kg, iv and 5 mg/kg, po; format: ADME, organism-based; conditions: in vivo, read-out: Vdss
[5] = Half life in rat at 2 mg/kg, iv and 5 mg/kg, po; format: ADME, organism-based; conditions: in vivo
[6] = AUC (0 to infinity) in mouse at 1 mg/kg, iv; format: ADME, organism-based; set-up: time infinity, dose 1 mg/kg, route intravenous; conditions: plasma
[7] = AUC (0 to infinity) in rat at 2 mg/kg, iv; format: ADME, organism-based; set-up: time infinity, dose 2 mg/kg, route intravenous; conditions: plasma
[8] = AUC (0 to infinity) in rat at 5 mg/kg, po; format: ADME, organism-based; set-up: dose 5 mg/kg, route oral, time infinity; conditions: plasma
[9] = system: Canis familiaris; assay: AUC (0 to infinity) in dog at 1 mg/kg, iv; format: ADME, organism-based, Canis lupus familiaris, Plasma; set-up: time infinity, dose 1 mg/kg, route intravenous; conditions: in vivo
[10] = system: Canis familiaris; assay: AUC (0 to infinity) in dog at 2 mg/kg, po; format: ADME, organism-based, Canis lupus familiaris, Plasma; set-up: time infinity, dose 2 mg/kg, route oral; conditions: in vivo
[11] = AUC (0 to infinity) in monkey at 0.25 mg/kg, iv; format: ADME, organism-based, Macaca mulatta; set-up: time infinity, dose 0.25 mg/kg, route intravenous; conditions: rhesus monkey, plasma
[12] = AUC (0 to infinity) in monkey at 0.5 mg/kg, po; format: ADME, organism-based, Macaca mulatta; set-up: time infinity, dose 0.5 mg/kg, route oral; conditions: rhesus monkey, plasma
[13] = Plasma clearance in dog at 1 mg/kg, iv; format: ADME, organism-based, Canis lupus familiaris; set-up: dose 1 mg/kg, route intravenous
[14] = Volume of distribution at steady state in mouse at 1 mg/kg, iv; format: ADME, organism-based; set-up: dose 1 mg/kg, route intravenous; conditions: in vivo, read-out: Vdss
[15] = Volume of distribution at steady state in dog at 1 mg/kg, iv; format: ADME, organism-based, Canis lupus familiaris; set-up: dose 1 mg/kg, route intravenous; conditions: in vivo, read-out: Vdss
[16] = Half life in mouse at 1 mg/kg, iv; format: ADME, organism-based; set-up: dose 1 mg/kg, route intravenous; conditions: in vivo
[17] = Half life in dog at 1 mg/kg, iv; format: ADME, organism-based, Canis lupus familiaris; set-up: dose 1 mg/kg, route intravenous; conditions: in vivo
[18] = Half life in monkey at 0.25 mg/kg, iv; format: ADME, organism-based, Macaca mulatta; set-up: dose 0.25 mg/kg, route intravenous; conditions: rhesus monkey, in vivo
[19] = Cmax in mouse at 2 mg/kg, po; format: ADME, organism-based; set-up: dose 2 mg/kg, route oral; conditions: in vivo
[20] = Cmax in rat at 5 mg/kg, po; format: ADME, organism-based; set-up: dose 5 mg/kg, route oral; conditions: in vivo
[21] = Cmax in dog at 2 mg/kg, po; format: ADME, organism-based, Canis lupus familiaris; set-up: dose 2 mg/kg, route oral; conditions: in vivo
[22] = Cmax in monkey at 0.5 mg/kg, po; format: ADME, organism-based, Macaca mulatta; set-up: dose 0.5 mg/kg, route oral; conditions: rhesus monkey, in vivo
[23] = Tmax in dog at 2 mg/kg, po; format: ADME, organism-based, Canis lupus familiaris; set-up: dose 2 mg/kg, route oral; conditions: in vivo
[24] = target: Cytochrome P450 2C9 (Homo sapiens, UniProt P11712); assay: Inhibition of CYP2C9; format: ADME
[25] = Lipophilicity, log P of the compound; format: physicochemical; conditions: octanol/water
[26] = Solubility of the compound at pH 7.4; format: physicochemical; conditions: buffer
[27] = target: T1, Hepatocyte growth factor receptor; assay: Inhibition of recombinant human c-MET phosphorylation at C-terminal Y1349
[28] = target: T1, Hepatocyte growth factor receptor; assay: Inhibition of recombinant human c-MET phosphorylation at C-terminal Y1365
[29] = target: T1, Hepatocyte growth factor receptor; assay: Inhibition of recombinant human c-MET phosphorylation at C-terminal Y1230
[30] = target: T1, Hepatocyte growth factor receptor; assay: Inhibition of recombinant human c-MET phosphorylation at C-terminal Y1235
[31] = target: T1, Hepatocyte growth factor receptor; assay: Inhibition of c-MET overexpressed in human GTL-16 cells assessed as phosphorylation at C-terminal Y1365 after 2 hrs by Western blot analysis; format: cell-based
[32] = target: T1, Hepatocyte growth factor receptor; assay: Binding affinity to human recombinant His6-tagged phosphorylated c-Met cytosolic domain
[33] = target: Hepatocyte growth factor receptor (Homo sapiens, UniProt P08581, N1100Y)
[34] = target: Hepatocyte growth factor receptor (Homo sapiens, UniProt P08581, Y1230C)
[35] = target: Hepatocyte growth factor receptor (Homo sapiens, UniProt P08581, Y1230H)
[36] = target: Hepatocyte growth factor receptor (Homo sapiens, UniProt P08581, Y1235D)
[37] = target: Receptor-type tyrosine-protein kinase FLT3 (Homo sapiens, UniProt P36888); assay: Inhibition of human Flt3
[38] = target: Tyrosine-protein kinase Mer (Homo sapiens, UniProt Q12866); assay: Inhibition of human Mer
[39] = target: Fibroblast growth factor receptor 2 (Homo sapiens, UniProt P21802); assay: Inhibition of human FGFR2
[40] = target: High affinity nerve growth factor receptor (Homo sapiens, UniProt P04629); assay: Inhibition of human TrkA
[41] = target: Fibroblast growth factor receptor 3 (Homo sapiens, UniProt P22607); assay: Inhibition of human FGFR3
[42] = target: BDNF/NT-3 growth factors receptor (Homo sapiens, UniProt Q16620); assay: Inhibition of human TrkB
[43] = target: Fibroblast growth factor receptor 1 (Homo sapiens, UniProt P11362); assay: Inhibition of human FGFR1
[44] = target: Vascular endothelial growth factor receptor 3 (Homo sapiens, UniProt P35916); assay: Inhibition of human Flt4
[45] = target: Tyrosine-protein kinase JAK2 (Homo sapiens, UniProt O60674); assay: Inhibition of human JAK2
[46] = target: Platelet-derived growth factor receptor alpha (Homo sapiens, UniProt P16234); assay: Inhibition of human PDGFR-alpha
[47] = system: Mus musculus; assay: Inhibition of c-Met phosphorylation at Y1349 in human GTL16 cells xenografted in po dosed CD1 nu/nu mouse measured 1 hr post dosing by Western blot analysis; conditions: CD1, GTL 16, 1 h
[48] = system: GTL 16; assay: Antitumor activity against human GTL16 cells xenografted in CD1 nu/nu mouse assessed as suppression of tumor growth at 10 to 100 mg/kg, po BID; format: functional, organism-based
[49] = system: GTL 16; assay: Antitumor activity against human GTL16 cells xenografted in CD1 nu/nu mouse assessed as suppression of tumor growth at 200 mg/kg, po QD; format: functional, organism-based; set-up: dose 200 mg/kg
[50] = system: Mus musculus; assay: Toxicity in human GTL16 cells xenografted CD1 nu/nu mouse assessed as mortality at 10 to 100 mg/kg, po BID; format: organism-based; set-up: dose 10-100 mg/kg, route oral; conditions: in vivo
[51] = system: Mus musculus; assay: Toxicity in human GTL16 cells xenografted CD1 nu/nu mouse assessed as mortality at 10 to 200 mg/kg, po qd; format: organism-based; set-up: dose 10-200 mg/kg, route oral; conditions: in vivo
[52] = system: Mus musculus; assay: Toxicity in human GTL16 cells xenografted CD1 nu/nu mouse assessed as change in median body weight at 10 to 100 mg/kg, po BID; format: organism-based; set-up: dose 10-100 mg/kg, route oral; conditions: in vivo
[53] = system: Mus musculus; assay: Inhibition of c-Met phosphorylation at Y1365 in human GTL16 cells xenografted in CD1 nu/nu mouse at 10 to 100 mg/kg, po BID measured after 4 hrs by immunostaining assay; format: functional, organism-based
[54] = system: Mus musculus; assay: Inhibition of c-Met phosphorylation at Y1349 in human GTL16 cells xenografted in CD1 nu/nu mouse at 10 to 100 mg/kg, po BID measured after 4 hrs by immunostaining assay; format: functional, organism-based
[55] = system: Mus musculus; assay: Inhibition of Akt phosphorylation at S473 in human GTL16 cells xenografted in CD1 nu/nu mouse at 10 to 100 mg/kg, po BID measured after 4 hrs by immunostaining assay; format: functional, organism-based
[56] = Inhibition of potassium channel IKr

CN(C[C@@H]1COCCO1)S(=O)(=O)Nc1ccc2ccc3ncc(-c4cnn(C)c4)cc3c(=O)c2c1 [MK-2461] showed an IC50 [1] of 56 nM, an IC50 [2] of 440 nM and a clearance [3] of 9.1 mL/min/kg. It also gave a Vd [4] of 0.4 L/kg, a half-life [5] of 48 min and an AUC(0-inf) [6] of 0.4 µM·h. The AUC(0-inf) [7] was 7.6 µM·h, the AUC(0-inf) [8] was 11.8 µM·h and the AUC [9] was 8.4 µM·h. For the same compound, the AUC [10] was 13.7 µM·h, the AUC(0-inf) [11] was 1 µM·h and the AUC(0-inf) [12] was 0.4 µM·h. The clearance [13] was 4.3 mL/min/kg, the Vd [14] was 3.2 L/kg and the Vd [15] was 1.1 L/kg. For the same compound, the half-life [16] was 30 min, the half-life [17] was 174 min and the half-life [18] was 48 min. For the same compound, the Cmax [19] was 410 nM, the Cmax [20] was 4200 nM and the Cmax [21] was 2500 nM. It also gave a Cmax [22] of 120 nM, a Tmax [23] of 84 min and an IC50 [24] of 1200 nM. The logP [25] was 2.7, the solubility [26] was 3 µg/mL (≈ 6.05 µM) and the IC50 [27] was 100 nM. For the same compound, the IC50 [28] was 26 nM, the IC50 [29] was 900 nM and the IC50 [30] was 900 nM. It also gave an IC50 [31] of 50 nM, a Kd [32] of 4 nM and an IC50 [33] of 1.5 nM. The IC50 [34] was 1.5 nM, the IC50 [35] was 1 nM and the IC50 [36] was 0.5 nM. The IC50 [37] was 22 nM, the IC50 [38] was 24 nM and the IC50 [39] was 39 nM. It also gave an IC50 [40] of 46 nM, an IC50 [41] of 50 nM and an IC50 [42] of 61 nM. For the same compound, the IC50 [43] was 65 nM, the IC50 [44] was 78 nM and the IC50 [45] was 230 nM. The IC50 [46] was under 100 nM, the IC50 [47] was 1000 nM and the Activity [48] was “Active”. The Activity [49] was “Active”, the Activity [50] was “Non-toxic” and the Activity [51] was “Non-toxic”. For the same compound, the Activity [52] was “Non-toxic”, the inhibition [53] was “Active” and the inhibition [54] was “Active”. For the same compound, the inhibition [55] was “Active” and the IC50 [56] was over 30000 nM.
